According to US6316437A, “Spirohydantoin compounds and uses thereof” (Merck & Co., Inc., priority 2000, dated 2001):
Structures can show the parent of a compound that is named as a salt. Where two headings read alike, the source gives them in different places.

What was measured:
[1] = biological target: T1, human alpha 1a adrenergic receptor (Homo sapiens, UniProt P35348); assay: Alpha 1a Adrenergic Receptor Binding (competition binding, [125I]-HEAT); details: human alpha 1a membranes, [125I]-HEAT competition, room temperature, one hour
T1 sequence (P35348 1-466): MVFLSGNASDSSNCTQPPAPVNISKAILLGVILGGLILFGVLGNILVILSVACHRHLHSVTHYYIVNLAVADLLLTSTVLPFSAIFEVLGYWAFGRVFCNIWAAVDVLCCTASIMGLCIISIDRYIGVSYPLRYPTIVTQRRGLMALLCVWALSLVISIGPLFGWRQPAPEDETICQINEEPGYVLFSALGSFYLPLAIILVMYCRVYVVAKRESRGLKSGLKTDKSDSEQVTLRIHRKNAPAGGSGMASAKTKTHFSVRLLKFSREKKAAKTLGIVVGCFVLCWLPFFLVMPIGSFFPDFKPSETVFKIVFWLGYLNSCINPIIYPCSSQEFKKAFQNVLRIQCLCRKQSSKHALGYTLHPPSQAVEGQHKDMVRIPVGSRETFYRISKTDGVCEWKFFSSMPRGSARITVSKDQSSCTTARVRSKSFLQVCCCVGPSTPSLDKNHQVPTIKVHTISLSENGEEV
Experimental: Screening Assay: Alpha 1a Adrenergic Receptor Binding
Membranes prepared from the stably transfected human alpha 1a cell line (ATCC CRL 11140) were used to identify compounds that bind to the human alpha 1a adrenergic receptor. These competition binding reactions (total volume=200 μl) contained 50 mM Tris-HCl pH. 7.4, 5 mM EDTA, 150 mM NaCl, 100 pM [^125 I]-HEAT, membranes prepared from the alpha 1a cell line and increasing amounts of unlabeled ligand. Reactions were incubated at room temperature for one hour with shaking. Reactions were filtered onto Whatman GF/C glass fiber filters with a Inotec 96 well cell harvester. Filters were washed three times with ice cold buffer and bound radioactivity was determined (Ki).

[2] = biological target: T2, human alpha 1d adrenergic receptor (Homo sapiens, UniProt P25100); assay: Selective Binding Assay, alpha 1d (competition binding, [125I]-HEAT); details: alpha 1a versus alpha 1d, [125I]-HEAT competition binding
T2 construct: host or cells: stably transfected cell line
T2 sequence (P25100 1-572): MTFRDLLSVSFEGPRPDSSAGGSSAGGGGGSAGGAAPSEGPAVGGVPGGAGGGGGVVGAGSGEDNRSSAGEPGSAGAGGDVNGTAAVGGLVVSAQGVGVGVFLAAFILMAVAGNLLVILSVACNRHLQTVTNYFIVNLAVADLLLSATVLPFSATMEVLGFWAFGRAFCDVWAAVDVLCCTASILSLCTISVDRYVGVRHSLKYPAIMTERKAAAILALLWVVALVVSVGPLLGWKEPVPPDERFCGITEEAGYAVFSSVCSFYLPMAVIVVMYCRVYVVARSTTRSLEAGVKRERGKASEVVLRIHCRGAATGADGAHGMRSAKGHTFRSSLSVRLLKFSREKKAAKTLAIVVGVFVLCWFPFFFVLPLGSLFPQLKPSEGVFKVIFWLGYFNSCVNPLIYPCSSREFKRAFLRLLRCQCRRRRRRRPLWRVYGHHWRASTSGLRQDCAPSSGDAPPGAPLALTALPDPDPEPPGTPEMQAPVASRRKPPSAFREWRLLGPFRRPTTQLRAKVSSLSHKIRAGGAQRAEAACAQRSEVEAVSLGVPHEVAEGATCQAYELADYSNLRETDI
Experimental: (§1) Membranes prepared from stably transfected human alpha 1d and alpha 1b cell lines (ATCC CRL 11138 and CRL 11139, respectively) were used to identify compounds that selectively bind to the human alpha 1a adrenergic receptor. These competition binding reactions (total volume=200 μl) contained 50 mM Tris-HCl pH. 7.4, 5 mM EDTA, 150 mM NaCl, 100 pM [^125 I]-HEAT, membranes prepared from cell lines transfected with the respective alpha 1 subtype expression plasmid and increasing amounts of unlabeled ligand. Reactions were incubated at room temperature for one hour with shaking. Reactions were filtered onto Whatman GF/C glass fiber filters with a Inotec 96 well cell harvester. Filters were washed three times with ice cold buffer and bound radioactivity was determined (Ki).

[3] = biological target: T3, human alpha 1b adrenergic receptor (Homo sapiens, UniProt P35368); assay: Selective Binding Assay, alpha 1b (competition binding, [125I]-HEAT); details: alpha 1a versus alpha 1b, [125I]-HEAT competition binding
T3 construct: host or cells: stably transfected cell line
T3 sequence (P35368 1-520): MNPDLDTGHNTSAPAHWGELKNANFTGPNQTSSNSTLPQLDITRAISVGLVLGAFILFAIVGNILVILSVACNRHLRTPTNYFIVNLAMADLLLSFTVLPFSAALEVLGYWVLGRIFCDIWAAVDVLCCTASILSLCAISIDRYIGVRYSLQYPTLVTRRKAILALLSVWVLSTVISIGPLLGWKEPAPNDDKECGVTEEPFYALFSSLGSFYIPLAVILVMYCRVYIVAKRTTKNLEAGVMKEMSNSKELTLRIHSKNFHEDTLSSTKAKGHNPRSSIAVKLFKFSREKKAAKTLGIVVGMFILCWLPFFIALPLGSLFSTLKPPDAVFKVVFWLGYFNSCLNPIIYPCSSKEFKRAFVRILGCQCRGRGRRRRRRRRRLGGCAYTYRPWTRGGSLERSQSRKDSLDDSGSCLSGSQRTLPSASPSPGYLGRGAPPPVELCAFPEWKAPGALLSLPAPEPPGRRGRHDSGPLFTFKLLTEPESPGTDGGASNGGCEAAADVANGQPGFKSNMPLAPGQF
Experimental: as §1

Ki ([1]; read-out: alpha 1a Ki) | SMILES | Ki ([1]; alpha 1a Ki) | other results
< 10 nM | Cc1ccc2c(c1)CCC21NC(=O)N(CCCN2CCC(c3ccc(F)cc3C#N)CC2)C1=O (racemic) [Compound 36, (+/ -)-1-{3-[4-(4-Fluoro-2-cyanophenyl)piperidin-1-yl]propyl}3-5'-methyl-spiro[imidazolidine-4,1'indan]-2,5-dione hydrochloride] |  | 
< 10 nM | N#Cc1cc(F)ccc1C1CCN(CCCN2C(=O)NC3(CCCOc4cc(F)ccc43)C2=O)CC1 (racemic) [Compound 50, (+/ -)-1-{3-[4-(4-fluoro-2-cyano-phenyl)piperidin-1-yl]propyl}-8-fluoro-2,3,4,5-tetrahydro-spiro[1-benzoxepin-5(2H),4'-imidazolidine]-2',5'-dione hydrochloride] |  | 
< 10 nM | O=C1NC2(CCOc3cc(F)ccc32)C(=O)N1CCCN1CCC(c2ccc(F)cc2)CC1 (single isomer, unassigned; (+)) [Compound 42, (+)-1'-{3-[4-(4-fluorophenyl)piperidin-1-yl]propyl}-7-fluoro-2,3-dihydro-spiro[4H-1-benzopyran-4,4'-imidazolidine]-2',5'-dione] |  | 
 | O=C1NC2(CCc3cc(F)ccc32)C(=O)N1CCCN1CCC2(CCc3ccccc32)CC1 (stereo not shown) [Compound 14] | < 100 nM | 
 | CC(CCN1C(=O)NC2(CCc3cc(Cl)ccc32)C1=O)N1CCC(c2ccc(F)cc2)CC1.Cl (racemic) [Compound 51, (+/ -)-1-{3-[4-(4-fluorophenyl)piperidin-1-yl]butyl}-5'-chloro-spiro[imidazolidine-4,1'indan]-2,5-dione hydrochloride] |  | fold more selective in binding to alpha 1a receptors versus binding to the alpha 1d receptors [2]: at least 10 fold; fold more selective in binding to alpha 1a receptors versus binding to the alpha 1b receptors [3]: at least 10 fold
 | Cc1ccc2c(c1)CCC21NC(=O)N(CCCN2CCC3(CCc4ccccc43)CC2)C1=O (single isomer, unassigned; (+)) [Compound 35, (+)-1-{3-{spiro[indano-1,4'-piperidin]-1-yl}propyl}-5'-methyl-spiro[imidazolidine-4,1'indan]-2,5-dione] | < 10 nM | 
 | Cc1ccc2c(c1)CCC21NC(=O)N(CCCN2CCC3(CCc4ccccc43)CC2)C1=O (racemic) [Compound 33, (+/ -)-1-{3-{Spiro[indano-1,4'-piperidin]-1-yl}propyl}-5'-methyl-spiro[imidazolidine-4,1'indan]-2,5-dione hydrochloride] | < 10 nM | 
< 10 nM | N#Cc1cc(F)ccc1C1CCN(CCCN2C(=O)NC3(CCc4cc(F)c(F)cc43)C2=O)CC1 (racemic) [Compound 18, (+/ -)-1-{3-[4-(4-Fluoro-2-cyanophenyl)piperidin-1-yl]propyl}-5',6'-difluoro-spiro[imidazolidine-4,1'indan]-2,5-dione hydrochloride] |  | 
 | O=C1NC2(CCc3cc(F)ccc32)C(=O)N1CCCN1CCC2(CCc3ccccc32)CC1 (racemic) [Compound 12, (+/ -)-1-{3-{Spiro[indano-1,4'-piperidin]-1-yl}propyl}-5'-fluoro-spiro[imidazoline-4,1'indan]-2,5-dione hydrochloride] | < 10 nM | 
 | Cl.N#CC1(c2ccccc2)CCN(CCCN2C(=O)NC3(CCCCc4ccc(F)cc43)C2=O)CC1 (racemic) [Compound 48, (+/ -)-1'-[3-(4-Cyano-4-phenylpiperidin-1-yl)propyl]-3-fluoro-6,7,8,9-tetrahydro-spiro[5H-benzocycloheptene-5,4'-imidazolidine]-2',5'-dione hydrochloride] |  | fold more selective in binding to alpha 1a receptors versus binding to the alpha 1d receptors [2]: at least 10 fold; fold more selective in binding to alpha 1a receptors versus binding to the alpha 1b receptors [3]: at least 10 fold
< 10 nM | N#Cc1cc(F)ccc1C1CCN(CCCN2C(=O)NC3(CCc4cc(F)c(F)cc43)C2=O)CC1 (stereo not shown) [Compound 19] |  | 
< 10 nM | N#Cc1cc(F)ccc1C1CCN(CCCN2C(=O)NC3(CCSc4cc(F)ccc43)C2=O)CC1 (racemic) [Compound 45, (+/ -)-1'-{3-[4-(4-Fluoro-2-cyano-phenyl)piperidin-1-yl]propyl}-7-fluoro-2,3-dihydro-spiro[4H-1-benzothiopyran-4,4'-imidazolidine]-2',5'-dione hydrochloride] |  | 
< 10 nM | N#Cc1cc(F)ccc1C1CCN(CCCN2C(=O)NC3(CCc4cc(Cl)ccc43)C2=O)CC1 (stereo not shown) [Compound 24] |  | 
 | O=C1Nc2ccc(Cl)cc2C2(CCN(CCCN3C(=O)NC4(CCc5cc(Cl)ccc54)C3=O)CC2)O1 (racemic) [Compound 29, (+/ -)-1-{3-{6-Chlorospiro[4H-3,1-benzoxazine-4,4'-piperidin]-2(1H)-on-1'-yl}propyl}-5'-chloro-spiro[imidazolidine-4,1'indan]-2,5-dione hydrochloride] | < 10 nM | 
 | N#CC1(c2ccccc2)CCN(CCCN2C(=O)NC3(CCc4cc(F)ccc43)C2=O)CC1 (stereo not shown) [Compound 10] | < 10 nM | 
< 10 nM | N#Cc1cc(F)ccc1C1CCN(CCCN2C(=O)NC3(CCc4cc(Cl)ccc43)C2=O)CC1 (racemic) [Compound 23, (+/ -)-1-{3-[4-(4-Fluoro-2-cyanophenyl)piperidin-1-yl]propyl}-5'-chloro-spiro[imidazolidine-4,1'indan]-2,5-dione hydrochloride] |  | 
 | Cl.O=C1Nc2ccc(Cl)cc2C2(CCN(CCCN3C(=O)NC4(CCc5cc(F)ccc54)C3=O)CC2)O1 (racemic) [Compound 15, (+/ -)-1-{3-{6-Chlorospiro[4H-3,1-benzoxazine-4,4'-piperidin]-2(1H)-on-1'-yl}propyl}-5'-fluoro-spiro[imidazolidine-4,1'indan]-2,5-dione hydrochloride] | < 100 nM | fold more selective in binding to alpha 1a receptors versus binding to the alpha 1d receptors [2]: at least 10 fold; fold more selective in binding to alpha 1a receptors versus binding to the alpha 1b receptors [3]: at least 10 fold
 | O=C1NC2(CCc3cc(Cl)ccc32)C(=O)N1CCCN1CCC2(CCc3ccccc32)CC1 (stereo not shown) [Compound 28] | < 10 nM | 
